Data taken from patent EP0394122A2, “Use of tetracyclines to manufacture a medicament for the treatment and prevention of AIDS” (priority 1989, dated 1990).

Assays:
[1] = test system: lignée lymphoblastoïde CEM clone 13; assay: Cytotoxicity on non-infected CEM clone 13 cells (MTT viability); type: cell-based, humaines; details: day 7
Method: (§1) Dans une microplaque de 96 puits on dépose 25 µl/puits d'une solution de produit à tester ou de tampon phosphate isotonique (TPI) dans le cas des contrôles. Les produits sont étudiés à différentes concentrations (souvent 8), à raison de 4 puits par concentration. On ajoute alors 125 µl d'une suspension de cellules CEM dans le milieu RPMI contenant 10 % de sérum de veau foetal, 40 U/ml de pénicilline, 40 µg/ml de streptomycine et 5 µg/ml de polybrène (3500 cellules par puits) et les microplaques sont incubées une heure à 37°C, sous une atmosphère contenant 5 % de gaz carbonique. Pour chaque concentration, l'essai est partagé en 2 parties : une partie sur cellules infectées, pour la détermination de l'activité antivirale et l'autre partie sur cellules non infectées, pour déterminer la cytotoxicité des produits. On infecte alors la première série avec HIV (100 µl par puit d'une suspension de virus LAV-1-BRU contenant 200-300 TCID50) tandis que l'autre série reçoit 100 µl de milieu RPMI tel que défini précédemment. Au bout de 7 jours d'incubation, 175 µl de surnageant sont prélevés et rejetés. La viabilité cellulaire est déterminée selon une modification de la technique décrite par R. Pauwels et coll., J. Virol.
(§2) Les puits, contenant encore les cellules (infectées ou non infectées), reçoivent 10 µl d'une solution de MTT (méthylthiazoletétrazolium) à 5 mg/ml dans du tampon phosphate isotonique. Pendant une période d'incubation de 4 heures, le MTT est converti en un sel de formazan (bleu) à l'intérieur des cellules vivantes et proportionnellement à leur nombre, alors que rien n'apparaît dans les puits ne contenant plus que des cellules mortes. On ajoute alors 120 µl d'isopropanol (contenant 0,04 mole/l d'acide chlorhydrique) et les microplaques sont agitées jusqu'à la solubilisation du bleu de formazan. L'absorption à 540 nm est lue avec un lecteur automatique de réactions ELISA en microplaques.
(§3) Pour les essais de plus longue durée, on procède comme décrit précédemment jusqu'au jour 7. A ce moment, 100 µl de cellules sont prélevés pour mesurer la proportion de cellules vivantes et le restant est remis en culture avec du milieu frais contenant les produits aux mêmes concentrations. Cette opération est répétée tous les 4 jours.

virus HIV (LAV-1-BRU) = assay: Protection against the cytopathogenic effect of HIV in infected CEM clone 13 cells (MTT viability); type: cell-based; details: day 7
Method: as §1, with “Le test est réalisé sur la lignée lymphoblastoïde CEM clone 13. Dans” for “Dans”, “Virol. Meth., 20, 309-321 (1988).” for “Virol.”
as §2, §3

Molecule	Cellules non infectées Densité optique ([1]; 0,01 µg/ml)	Cellules non infectées Densité optique ([1]; 0,04 µg/ml)	Cellules non infectées Densité optique ([1]; 0,12 µg/ml)	Cellules non infectées Densité optique ([1]; 0,37 µg/ml)	Cellules non infectées Densité optique ([1]; 10 µg/ml)	Cellules non infectées Densité optique ([1]; 30 µg/ml)	Cellules non infectées Densité optique ([1]; 1,11 µg/ml)	Cellules non infectées Densité optique ([1]; 3,33 µg/ml)	Cellules infectées Densité optique (virus HIV (LAV-1-BRU); 0,01 µg/ml)	Cellules infectées Densité optique (virus HIV (LAV-1-BRU); 0,04 µg/ml)	Cellules infectées Densité optique (virus HIV (LAV-1-BRU); 0,12 µg/ml)	Cellules infectées Densité optique (virus HIV (LAV-1-BRU); 0,37 µg/ml)	Cellules infectées Densité optique (virus HIV (LAV-1-BRU); 10 µg/ml)	Cellules infectées Densité optique (virus HIV (LAV-1-BRU); 30 µg/ml)	Cellules infectées Densité optique (virus HIV (LAV-1-BRU); 1,11 µg/ml)	Cellules infectées Densité optique (virus HIV (LAV-1-BRU); 3,33 µg/ml)	other results
lymecycline [Exemple 4]	1,75	1,80	1,90	1,75	1,85	1,05	1,80	1,85	0,75	1,25	1,21	1,20	1,55	1,05	1,28	1,40	–
C=C1c2cccc(O)c2C(O)=C2C(=O)C3(O)C(O)=C(C(N)=O)C(=O)C(N(C)C)C3C(O)C12 (stereo not drawn) [Exemple 3, métacycline]	1,100	1,380	1,300	1,230	0,960	0,1	1,180	1,320	0,570	0,640	0,680	0,730	0,770	0,1	0,780	1,060	–
CN(C)C1C(=O)C(C(N)=O)=C(O)C2(O)C(=O)C3=C(O)c4c(O)cccc4C(C)(O)C3CC12 (stereo not drawn) [Exemple 1, tétracycline]	–	–	–	–	–	–	–	–	–	–	–	–	–	–	–	–	Cellules non infectées Densité optique ([1]; 0,03 µg/ml): 1,025; Cellules non infectées Densité optique ([1]; 0,08 µg/ml): 1,080; Cellules non infectées Densité optique ([1]; 0,25 µg/ml): 1,050; Cellules non infectées Densité optique ([1]; 0,74 µg/ml): 1,100; Cellules non infectées Densité optique ([1]; 20 µg/ml): 0,460; Cellules non infectées Densité optique ([1]; 60 µg/ml): 0,1; Cellules non infectées Densité optique ([1]; 2,22 µg/ml): 1,040; Cellules non infectées Densité optique ([1]; 6,67 µg/ml): 0,900; Cellules infectées Densité optique (virus HIV (LAV-1-BRU); 0,03 µg/ml): 0,350; Cellules infectées Densité optique (virus HIV (LAV-1-BRU); 0,08 µg/ml): 0,350; Cellules infectées Densité optique (virus HIV (LAV-1-BRU); 0,25 µg/ml): 0,340; Cellules infectées Densité optique (virus HIV (LAV-1-BRU); 0,74 µg/ml): 0,420; Cellules infectées Densité optique (virus HIV (LAV-1-BRU); 20 µg/ml): 0,400; Cellules infectées Densité optique (virus HIV (LAV-1-BRU); 60 µg/ml): 0,1; Cellules infectées Densité optique (virus HIV (LAV-1-BRU); 2,22 µg/ml): 0,510; Cellules infectées Densité optique (virus HIV (LAV-1-BRU); 6,67 µg/ml): 0,620
